The values below come from the SangsterLogP compilation.

A short description of this series: method code SF-HPLC, from DOI: 10.1021/jm4016729, PMID: 24422550. Particulars: pH 7.4.

In the case of `Cc1nc(C2=COC2)c(C(=O)NC2C3CC4CC2C(O)(C4)C3)s1` (configuration not stated), the logD (as a rule, lipophilicity at a set pH, counting ionised and neutral species) came out at 1.5.
In turn, `O=C(NC1C2CC3CC1CC(O)(C3)C2)c1sc(C2CCCO2)nc1C1CC1` (configuration not stated) gave a logD of 2.4.
